From patent US7504422B2, “Polyamine compounds” (Taigen Biotechnology Co. Ltd., priority 2003, dated 2009)

Experiments:
[1] = test system: hematopoietic stem cells CD34+ and EPCs CD133+; test: Stem cell and endothelial progenitor cell mobilization into peripheral blood; format: in vivo, BALB/c mice; settings: for Fold increase at 1 mg/Kg, CD34+ / Fold increase at Maximum Tolerated Dose (MTD), CD34+: CD34+ cells in circulation; for Fold increase at 1 mg/Kg, CD34+ / Fold increase at Maximum Tolerated Dose (MTD), CD34+ / Fold increase at 1 mg/Kg, CD133+ / Fold increase at Maximum Tolerated Dose (MTD), CD133+: mice; for Fold increase at Maximum Tolerated Dose (MTD), CD34+ / Fold increase at Maximum Tolerated Dose (MTD), CD133+: MTD (125: 15 mg/kg, 136: 30 mg/Kg); for Fold increase at 1 mg/Kg, CD133+ / Fold increase at Maximum Tolerated Dose (MTD), CD133+: CD133+ cells in circulation; for Fold increase in circulation, CD34+ / Fold increase in circulation, CD133+: Table 2, 125 at 15 mg/Kg, G-CSF at 50 ug/kg/d × 4, alone or combined; for mobilization of hematopoietic stem cells CD34+ and EPCs CD133+ into peripheral blood: animal studies
Procedure: The in vivo efficacy of these two compounds in mobilizing stem cells was tested in male Special Pathogens Free (SPF) BALB/c mice. Different concentrations of a compound solution were prepared and administrated either intravenously of intramuscularly into mice. Mice receiving saline were used as a control. Whole blood was collected at 3 hours after i.v. injection or 6 hours after i.m. injection by cardiac puncture. Total leukocytes were resuspended in PBS and cell numbers were counted using trypan blue exclusion. Cells numbers were adjusted to 6×10^4 in 0.1 mL PBS for antibody staining. CXCR4^+ cells, CD34^+ cells, and CD133^+ cells were counted using surface staining and flow cytometry analysis. Data represents mean ±SEM of four independent experiments. Levels of cell number in different groups were compared using One-way ANOVA, differences were considered significant if P values were <0.05.

[2] = Maximum Tolerated Dose; settings: male, BALB/c, mouse, in vivo, intravenous; mice

Question: What does the source list for `c1ccc(CNCCN(CCNCc2ccccn2)Cc2ccc(CNCc3nc4ccccc4[nH]3)cc2)nc1` [Compound 125, N-(4-{[(1H-benzoimidazol-2-ylmethyl)-amino]-methyl}-benzyl)-N′-pyridin-2-ylmethyl-N-{2-[(pyridin-2-ylmethyl)-amino]-ethyl}-ethane-1,2-diamine]?
Answer: Fold increase at 1 mg/Kg, CD34+ [1]: 3.99 fold; Fold increase at Maximum Tolerated Dose (MTD), CD34+ [1]: 6.58 fold; Fold increase at 1 mg/Kg, CD133+ [1]: 2.24 fold; Fold increase at Maximum Tolerated Dose (MTD), CD133+ [1]: 5.77 fold; Fold increase in circulation, CD34+ [1]: 7.1 fold; Fold increase in circulation, CD133+ [1]: 6.0 fold; mobilization of hematopoietic stem cells CD34+ and EPCs CD133+ into peripheral blood [1]: rapidly mobilized; MTD [2]: 15 mg/kg

Question: What does the source list for `COc1ccc2[nH]c(CNCc3ccc(CN(CCNCc4ccccn4)CCNCc4ccccn4)cc3)nc2c1` [Compound 136, N1-(4-(((5-methoxy-1H-benzo[d]imidazol-2-yl)methylamino)methyl)benzyl)-N2-(pyridin-2-ylmethyl)-N1-(2-(pyridin-2-ylmethylamino)-ethyl)ethane-1,2-diamine]?
Answer: Fold increase at 1 mg/Kg, CD34+ [1]: 2.63 fold; Fold increase at Maximum Tolerated Dose (MTD), CD34+ [1]: 5.66 fold; Fold increase at 1 mg/Kg, CD133+ [1]: 3.17 fold; Fold increase at Maximum Tolerated Dose (MTD), CD133+ [1]: 8.49 fold; mobilization of hematopoietic stem cells CD34+ and EPCs CD133+ into peripheral blood [1]: rapidly mobilized; MTD [2]: 30 mg/kg

B1: G-CSF: granulocyte-colony stimulating factor; growth factor for stem cells and EPCs currently used in clinics (protein, UniProt P09919 31-207, looked up)
Granulocyte …: TPLGPASSLPQSFLLKCLEQVRKIQGDGAALQEKLVSECATYKLCHPEELVLLGHSLGIPWAPLSSCPSQALQLAGCLSQLHSGLFLYQGLLQALEGISPELGPTLDTLQLDVADFATTIWQQMEELGMAPALQPTQGAMPAFASAFQRRAGGVLVASHLQSFLEVSYRVLRHLAQP
Question: Which “Fold increase in circulation, CD34+” value [1] does the source give for B1 here?
Answer: Its value is 8.4 fold.

Question: And the “Fold increase in circulation, CD133+” value [1]?
Answer: The value was 26.2 fold.
